Measurements: US9079902B2, “Heteroaryl sodium channel inhibitors” (AMGEN INC., priority 2011, dated 2015)
Where a name gives a salt, the structure may show the parent alone.

Experiments:
Nav 1.7 = Nav 1.7 (Homo sapiens (Human), UniProt Q15858); test: Nav 1.7 in vitro assay (IonWorks Quattro population patch-clamp); assay type: cell-based; conditions: 293 cells stably transfected with Nav 1.7; for IC50: 26th pulse to -20 mV, 5 Hz; for inhibition at 4.9 µM: HEK293
Experimental: (§1) Nav 1.7 and Nav 1.5 In Vitro Assay
(§2) 293 cells stably transfected with either Nav 1.7 or with Nav 1.5 were recorded in population patch-clamp mode with the IonWorks® Quattro automated electrophysiology system in accordance with the manufacturer's specifications (Molecular Devices, LLC, Sunnyvale, Calif.). Sodium channel currents were measured in response to a train of depolarizations that induced successively greater inactivation.
(§3) Cells were held at −110 mV for three seconds (Nav 1.7) or half a second (Nav 1.5) from a holding voltage of −15 mV, then put through a series of 26 pulses of 150 msec duration to −20 mV at a frequency of 5 Hz. Cells were then left unclamped for a period of 3 to 8 minutes while a single concentration of test compound was added. Cells were then reclamped and put through the same voltage protocol. Current at the end of the 26th pulse to −20 mV was subtracted from the peak current evoked by the 26th pulse to −20 mV to correct for leak current. Percent block was calculated for each concentration in duplicate, and IC50 curves were fitted to percent block as a function of concentration.

Nav 1.5 = Nav 1.5 (Homo sapiens (Human), UniProt Q14524); test: Nav 1.5 in vitro assay (IonWorks Quattro population patch-clamp); assay type: cell-based; conditions: 293 cells stably transfected with Nav 1.5; 26th pulse to -20 mV, 5 Hz
Experimental: as §1, §2, §3

Chain of Nav 1.5 (Q14524 whole entry): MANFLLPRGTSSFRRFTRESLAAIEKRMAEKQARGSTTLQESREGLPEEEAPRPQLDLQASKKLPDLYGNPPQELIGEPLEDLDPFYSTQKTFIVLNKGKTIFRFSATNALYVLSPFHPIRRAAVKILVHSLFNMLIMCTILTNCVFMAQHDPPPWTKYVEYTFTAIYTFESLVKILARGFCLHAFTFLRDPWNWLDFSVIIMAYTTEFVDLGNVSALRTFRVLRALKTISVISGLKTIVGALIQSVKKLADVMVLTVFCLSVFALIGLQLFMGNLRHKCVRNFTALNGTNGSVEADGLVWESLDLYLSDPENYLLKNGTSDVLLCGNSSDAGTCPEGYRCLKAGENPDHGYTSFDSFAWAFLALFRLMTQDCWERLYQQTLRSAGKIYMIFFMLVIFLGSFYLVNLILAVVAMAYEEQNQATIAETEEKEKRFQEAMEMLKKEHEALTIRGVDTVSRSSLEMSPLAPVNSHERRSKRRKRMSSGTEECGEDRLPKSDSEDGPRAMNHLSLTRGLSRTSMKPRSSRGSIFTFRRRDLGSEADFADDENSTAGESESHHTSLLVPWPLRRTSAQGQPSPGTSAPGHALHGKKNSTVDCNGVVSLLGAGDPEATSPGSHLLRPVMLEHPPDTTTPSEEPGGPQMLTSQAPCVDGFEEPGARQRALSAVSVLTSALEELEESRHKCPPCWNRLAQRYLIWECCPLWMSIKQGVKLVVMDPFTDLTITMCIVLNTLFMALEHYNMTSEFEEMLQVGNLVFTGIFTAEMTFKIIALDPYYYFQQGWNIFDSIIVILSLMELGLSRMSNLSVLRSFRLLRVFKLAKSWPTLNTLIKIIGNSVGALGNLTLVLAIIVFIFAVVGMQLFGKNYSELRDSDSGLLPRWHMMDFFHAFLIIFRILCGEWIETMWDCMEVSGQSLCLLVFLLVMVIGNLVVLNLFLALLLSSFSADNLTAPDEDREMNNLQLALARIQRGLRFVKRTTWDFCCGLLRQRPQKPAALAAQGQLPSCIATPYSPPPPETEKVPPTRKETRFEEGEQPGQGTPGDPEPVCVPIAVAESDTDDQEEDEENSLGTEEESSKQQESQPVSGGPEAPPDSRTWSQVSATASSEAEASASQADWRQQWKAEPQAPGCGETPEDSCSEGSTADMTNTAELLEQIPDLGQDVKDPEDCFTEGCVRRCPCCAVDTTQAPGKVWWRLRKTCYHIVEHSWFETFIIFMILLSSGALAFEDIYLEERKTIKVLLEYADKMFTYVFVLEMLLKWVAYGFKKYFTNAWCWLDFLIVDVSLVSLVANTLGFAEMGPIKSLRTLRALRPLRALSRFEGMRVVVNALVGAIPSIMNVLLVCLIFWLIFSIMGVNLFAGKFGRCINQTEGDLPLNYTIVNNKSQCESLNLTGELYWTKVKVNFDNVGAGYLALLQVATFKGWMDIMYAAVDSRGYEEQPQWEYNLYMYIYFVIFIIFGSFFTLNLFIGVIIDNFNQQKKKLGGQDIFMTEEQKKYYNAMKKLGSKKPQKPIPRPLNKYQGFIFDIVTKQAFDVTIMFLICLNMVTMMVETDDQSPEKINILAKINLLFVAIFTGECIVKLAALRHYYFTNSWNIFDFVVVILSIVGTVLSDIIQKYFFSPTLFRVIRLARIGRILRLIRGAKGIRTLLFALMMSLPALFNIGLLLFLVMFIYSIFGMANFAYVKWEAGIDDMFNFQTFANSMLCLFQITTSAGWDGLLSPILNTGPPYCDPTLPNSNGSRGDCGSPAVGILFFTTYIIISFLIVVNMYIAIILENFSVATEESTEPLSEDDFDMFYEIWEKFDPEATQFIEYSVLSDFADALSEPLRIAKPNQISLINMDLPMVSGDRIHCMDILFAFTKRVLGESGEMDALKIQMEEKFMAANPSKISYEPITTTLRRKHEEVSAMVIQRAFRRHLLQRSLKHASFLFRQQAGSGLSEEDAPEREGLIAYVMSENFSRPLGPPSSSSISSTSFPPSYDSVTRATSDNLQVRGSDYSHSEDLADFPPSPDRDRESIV
Chain of Nav 1.7 (Q15858 whole entry): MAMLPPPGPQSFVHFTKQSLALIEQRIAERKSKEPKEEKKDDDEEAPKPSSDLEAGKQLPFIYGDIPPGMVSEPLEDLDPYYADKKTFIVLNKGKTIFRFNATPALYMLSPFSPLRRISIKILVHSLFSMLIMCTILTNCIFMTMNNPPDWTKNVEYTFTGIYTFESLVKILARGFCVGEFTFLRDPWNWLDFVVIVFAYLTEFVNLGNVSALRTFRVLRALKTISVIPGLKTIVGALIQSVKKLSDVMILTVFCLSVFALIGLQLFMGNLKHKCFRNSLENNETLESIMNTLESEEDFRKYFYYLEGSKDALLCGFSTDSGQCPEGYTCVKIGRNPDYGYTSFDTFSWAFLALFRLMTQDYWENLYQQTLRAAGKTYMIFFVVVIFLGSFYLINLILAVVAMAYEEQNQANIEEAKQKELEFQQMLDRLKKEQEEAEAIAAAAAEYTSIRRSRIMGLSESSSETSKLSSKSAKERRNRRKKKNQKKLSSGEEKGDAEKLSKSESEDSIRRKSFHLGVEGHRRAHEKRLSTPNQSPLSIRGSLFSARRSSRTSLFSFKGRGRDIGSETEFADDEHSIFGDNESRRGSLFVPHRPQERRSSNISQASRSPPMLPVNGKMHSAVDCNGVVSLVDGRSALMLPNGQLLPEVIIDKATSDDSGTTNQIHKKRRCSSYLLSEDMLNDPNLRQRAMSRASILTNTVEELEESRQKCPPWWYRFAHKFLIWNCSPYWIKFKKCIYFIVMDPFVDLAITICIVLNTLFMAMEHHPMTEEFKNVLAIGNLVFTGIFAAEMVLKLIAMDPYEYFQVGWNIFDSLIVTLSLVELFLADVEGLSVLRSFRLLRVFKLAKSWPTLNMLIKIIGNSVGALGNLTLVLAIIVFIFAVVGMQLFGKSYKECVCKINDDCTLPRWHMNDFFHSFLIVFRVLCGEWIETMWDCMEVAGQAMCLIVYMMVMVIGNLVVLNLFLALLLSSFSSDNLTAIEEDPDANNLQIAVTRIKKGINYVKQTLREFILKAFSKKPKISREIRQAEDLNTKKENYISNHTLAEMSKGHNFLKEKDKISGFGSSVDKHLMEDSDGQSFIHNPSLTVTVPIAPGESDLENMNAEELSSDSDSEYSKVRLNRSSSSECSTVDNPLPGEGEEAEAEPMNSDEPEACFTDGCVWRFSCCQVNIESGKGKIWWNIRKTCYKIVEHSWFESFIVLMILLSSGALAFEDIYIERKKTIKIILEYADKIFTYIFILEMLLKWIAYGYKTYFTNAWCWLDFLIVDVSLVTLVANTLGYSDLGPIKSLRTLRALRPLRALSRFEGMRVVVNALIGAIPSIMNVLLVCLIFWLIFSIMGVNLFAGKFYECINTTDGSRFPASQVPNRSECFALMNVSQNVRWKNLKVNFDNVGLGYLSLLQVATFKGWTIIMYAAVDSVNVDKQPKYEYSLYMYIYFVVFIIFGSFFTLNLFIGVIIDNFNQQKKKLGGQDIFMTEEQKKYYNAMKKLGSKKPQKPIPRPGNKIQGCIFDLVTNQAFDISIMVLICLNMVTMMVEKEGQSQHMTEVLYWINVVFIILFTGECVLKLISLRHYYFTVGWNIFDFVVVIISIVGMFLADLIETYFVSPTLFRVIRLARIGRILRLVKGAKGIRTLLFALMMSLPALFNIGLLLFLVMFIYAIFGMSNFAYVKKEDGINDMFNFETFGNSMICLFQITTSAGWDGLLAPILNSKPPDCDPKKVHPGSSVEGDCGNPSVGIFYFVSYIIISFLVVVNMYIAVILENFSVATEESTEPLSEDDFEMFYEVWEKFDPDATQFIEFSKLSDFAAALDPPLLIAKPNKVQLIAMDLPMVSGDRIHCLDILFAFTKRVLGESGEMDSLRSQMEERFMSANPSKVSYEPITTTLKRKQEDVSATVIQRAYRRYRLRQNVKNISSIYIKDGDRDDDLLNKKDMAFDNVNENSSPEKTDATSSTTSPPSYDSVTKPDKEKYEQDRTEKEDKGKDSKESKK

Compound | IC50 (Nav 1.7) [µM] | IC50 (Nav 1.5) [µM] | inhibition at 4.9 µM (Nav 1.7) [%]
Cn1nccc1-c1cc(Cl)ccc1-c1cn(C)c2cc(S(=O)(=O)Nc3ncns3)ccc12 [Example 2, 3-(4-Chloro-2-(1-Methyl-1H-Pyrazol-5-yl)Phenyl)-1-Methyl-N-(1,2,4-Thiadiazol-5-yl)-1H-Indole-6-Sulfonamide] | 0.253 | > 10 | –
Cn1cc(-c2cc(Br)cc(C(F)(F)F)c2)c2ccc(S(=O)(=O)Nc3ncns3)cc21 [Example 17, 3-(3-Bromo-5-(Trifluoromethyl)Phenyl)-1-Methyl-N-(1,2,4-Thiadiazol-5-yl)-1H-Indole-6-Sulfonamide] | 9.11 | > 10 | –
Cn1nccc1-c1cc(C(F)(F)F)ccc1-c1cn(C)c2cc(S(=O)(=O)Nc3ccncn3)ccc12 [Example 12, 1-Methyl-3-(2-(1-Methyl-1H-Pyrazol-5-yl)-4-(Trifluoromethyl)Phenyl)-N-(Pyrimidin-4-yl)-1H-Indole-6-Sulfonamide] | 0.835 | > 10 | –
Cn1cc(-c2ccc(C(F)(F)F)cc2-c2ccncc2)c2ccc(S(=O)(=O)Nc3ncns3)cc21 [Example 18, 1-Methyl-3-(2-(Pyridin-4-yl)-4-(Trifluoromethyl)Phenyl)-N-(1,2,4-Thiadiazol-5-yl)-1H-Indole-6-Sulfonamide] | 0.05 | > 10 | –
Cn1cc(-c2cccc3c2CNCC3)c2ccc(S(=O)(=O)Nc3ncns3)cc21 [Example 54, 1-Methyl-3-(1,2,3,4-Tetrahydroisoquinolin-8-Yl)-N-(1,2,4-Thiadiazol-5-Yl)-1H-Indole-6-Sulfonamide Hydrochloride] | 1.63 | > 10 | –
CC#Cc1cncc(-c2cn(C)c3cc(S(=O)(=O)Nc4ncns4)ccc23)c1 [Example 14, 1-Methyl-3-(5-(Prop-1-Yn-1-yl)Pyridin-3-yl)-N-(1,2,4-Thiadiazol-5-yl)-1H-Indole-6-Sulfonamide] | 3.29 | > 10 | –
Cn1cc(-c2ccc(C(F)(F)F)cc2C2=CCNCC2)c2ccc(S(=O)(=O)Nc3ncns3)cc21 [Example 22, 1-Methyl-3-(2-(1,2,3,6-Tetrahydropyridin-4-yl)-4-(Trifluoromethyl)Phenyl)-N-(1,2,4-Thiadiazol-5-yl)-1H-Indole-6-Sulfonamide] | 0.0425 | > 10 | –
Cn1cc(-c2cc3ccccc3o2)c2ccc(S(=O)(=O)Nc3ncns3)cc21 [Example 59, 3-(Benzofuran-2-Yl)-1-Methyl-N-(1,2,4-Thiadiazol-5-Yl)-1H-Indole-6-Sulfonamide] | – | > 10 | 36.2
Cn1nccc1-c1cc(C(F)(F)F)ccc1-c1cn(C)c2cc(S(=O)(=O)Nc3nccs3)ccc12 [Example 11, 1-Methyl-3-(2-(1-Methyl-1H-Pyrazol-5-yl)-4-(Trifluoromethyl)Phenyl)-N-(Thiazol-2-yl)-1H-Indole-6-Sulfonamide] | 3.19 | > 10 | –
Cn1cc(-c2cnn(C3CC3)c2)c2ccc(S(=O)(=O)Nc3ncns3)cc21 [Example 55, 3-(1-Cyclopropyl-1H-Pyrazol-4-Yl)-1-Methyl-N-(1,2,4-Thiadiazol-5-Yl)-1H-Indole-6-Sulfonamide] | – | > 10 | 20.5
Cn1nccc1-c1cc(C(F)(F)F)ccc1-c1cn(S(C)(=O)=O)c2cc(S(=O)(=O)Nc3ncns3)ccc12 [Example 7, 3-(2-(1-Methyl-1H-Pyrazol-5-yl)-4-(Trifluoromethyl)Phenyl)-1-(Methylsulfonyl)-N-(1,2,4-Thiadiazol-5-yl)-1H-Indole-6-Sulfonamide] | 0.532 | > 10 | –
Cn1nccc1-c1cc(Cl)ccc1-c1c[nH]c2cc(S(=O)(=O)Nc3ncns3)ccc12 [Example 1, 3-(4-Chloro-2-(1-Methyl-1H-Pyrazol-5-yl)Phenyl)-N-(1,2,4-Thiadiazol-5-yl)-1H-Indole-6-Sulfonamide] | 0.445 | > 10 | –
Cn1cc(-c2ccccc2OC(F)(F)F)c2ccc(S(=O)(=O)Nc3ncns3)cc21 [Example 58, 1-Methyl-N-(1,2,4-Thiadiazol-5-Yl)-3-(2-(Trifluoromethoxy)Phenyl)-1H-Indole-6-Sulfonamide] | – | > 10 | 25.1
COc1ccc(-c2cn(C)c3cc(S(=O)(=O)Nc4ncns4)ccc23)cn1 [Example 61, 3-(6-Methoxypyridin-3-Yl)-1-Methyl-N-(1,2,4-Thiadiazol-5-Yl)-1H-Indole-6-Sulfonamide] | – | > 10 | 37.2
Cn1nccc1-c1cc(C(F)(F)F)ccc1-c1cn(C)c2nc(S(=O)(=O)Nc3ncns3)ccc12 [Example 26, 1-Methyl-3-(2-(1-Methyl-1H-Pyrazol-5-yl)-4-(Trifluoromethyl)Phenyl)-N-(1,2,4-Thiadiazol-5-yl)-1H-Pyrrolo [2,3-B]Pyridine-6-Sulfonamide] | 1.02 | > 10 | –
CC(=O)n1cc(-c2ccc(C(F)(F)F)cc2-c2ccnn2C)c2ccc(S(=O)(=O)Nc3ncns3)nc21 [Example 27, 1-Acetyl-3-(2-(1-Methyl-1H-Pyrazol-5-yl)-4-(Trifluoromethyl)Phenyl)-N-(1,2,4-Thiadiazol-5-yl)-1H-Pyrrolo [2,3-B]Pyridine-6-Sulfonamide] | 0.674 | > 10 | –
Cn1nccc1-c1cc(C(F)(F)F)ccc1-c1cn(C)c2cc(S(=O)(=O)Nc3nncs3)ccc12 [Example 13, 1-Methyl-3-(2-(1-Methyl-1H-Pyrazol-5-yl)-4-(Trifluoromethyl)Phenyl)-N-(1,3,4-Thiadiazol-2-yl)-1H-Indole-6-Sulfonamide] | 1.86 | > 10 | –
COc1ccc(-c2cn(C)c3cc(S(=O)(=O)Nc4ncns4)ccc23)cc1C#N [Example 60, 3-(3-Cyano-4-Methoxyphenyl)-1-Methyl-N-(1,2,4-Thiadiazol-5-Yl)-1H-Indole-6-Sulfonamide] | – | > 10 | 24.7
Cn1nccc1-c1cc(C(F)(F)F)ccc1-c1cn(C)c2cc(S(=O)(=O)Nc3ncns3)ccc12 [Example 8, 1-Methyl-3-(2-(1-Methyl-1H-Pyrazol-5-yl)-4-(Trifluoromethyl)Phenyl)-N-(1,2,4-Thiadiazol-5-yl)-1H-Indole-6-Sulfonamide] | 0.147 | > 10 | –
Cn1nccc1-c1cc(C(F)(F)F)ccc1-n1cnc2cc(S(=O)(=O)Nc3ncns3)ccc21 [Example 63, 1-(2-(1-Methyl-1H-Pyrazol-5-Yl)-4-(Trifluoromethyl)Phenyl)-N-(1,2,4-Thiadiazol-5-Yl)-1H-Benzo[D]Imidazole-5-Sulfonamide] | 1.13 | > 10 | –
CC(C)n1cc(-c2ccc(C(F)(F)F)cc2-c2ccnn2C)c2ccc(S(=O)(=O)Nc3ncns3)cc21 [Example 3, 1-Isopropyl-3-(2-(1-Methyl-1H-Pyrazol-5-yl)-4-(Trifluoromethyl)Phenyl)-N-(1,2,4-Thiadiazol-5-yl)-1H-Indole-6-Sulfonamide] | 1.93 | > 10 | –
Cn1cc(-c2cc(-c3ccncc3)cc(C(F)(F)F)c2)c2ccc(S(=O)(=O)Nc3ncns3)cc21 [Example 15, 1-Methyl-3-(3-(Pyridin-4-yl)-5-(Trifluoromethyl)Phenyl)-N-(1,2,4-Thiadiazol-5-yl)-1H-Indole-6-Sulfonamide] | 1.54 | > 10 | –
